This note sets out measurements from the METLIN SMRT retention time set (Domingo-Almenara et al. 2019).

A short description of the series: gradient 5% acetonitrile 3 min, to 50% in 2 min, to 85% in 15 min, held 3 min, 100 µL/min. Conditions: column: Zorbax Extend-C18 2.1 x 50 mm; eluents: water / acetonitrile, 0.1% formic acid. In a few lines:
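Standards, all pure, were combined into mixtures of ~100 molecules and run at 100 μL/min on a Zorbax Extend-C18 column (2.1 × 50 mm, 1.8 μm) with water and acetonitrile, each containing 0.1% formic acid. A coupled quadrupole time-of-flight mass spectrometer operated in positive and negative ionization mode. Retention time values come from computationally picked adduct peaks, each inspected manually.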
In turn, `CCS(=O)(=O)c1ccc2c(c1)N(Cc1nc(-c3cccc(C)c3)no1)C(=O)CO2` yielded an RP-LC retention time of 926 s.
`CCOc1ccccc1NC(=O)C1(C)Oc2cccnc2NC1=O` (centres undefined) gave an RP-LC retention time of 776 s.
The result for `Cc1noc(C)c1CNC(=O)c1ccc2nc[nH]c2c1` reads 561 s; that for `COc1ccccc1-c1cc(C(=O)N2CCN(c3cc(=O)n(C)c(=O)n3C)CC2)[nH]n1`, 665 s.
The result for `Cc1cccc(CNC(=O)C2CCCN(c3ccc4cc(S(=O)(=O)N5CCCC5)ccc4n3)C2)c1` (centres undefined) reads 774 s; that for `COc1ccc(C2CC(=O)N(c3ccc(OC)c(OC)c3)C(=O)C2)cc1OC`, 910 s; that for `COc1ccc(NS(=O)(=O)c2ccc(N3C(=O)CCC3=O)cc2)c(OC)c1`, 703 s.
For the molecule `CCc1noc(NC(C)=O)c1-c1ccc(C)c(S(=O)(=O)N2CCN(c3ccccn3)CC2)c1`, the RP-LC retention time stood at 665 s.
Under `O=C(Nc1cccc(OC(F)(F)F)c1)C1CCCN(c2nnc3ccccn23)C1` (centres undefined) stands 784 s; under `O=c1c2nc(-c3ccc(F)cc3F)cn2ccn1-c1ccc2c(c1)CCC2`, 1030 s.
For the molecule `COc1cc(OC)c(NC(=O)Cn2c(=O)n(-c3ccccc3)c(=O)c3c2cc(C)n3C)cc1Cl`, the RP-LC retention time worked out at 861 s.
`COc1cccc(NC(=O)Cc2c(C)nn(-c3nc(-c4ccc(Cl)cc4)cs3)c2C)c1` showed an RP-LC retention time of 1230 s.
Under `CC(C)NC(=O)c1ccc(OCC2CCCN(C(=O)c3ccc(F)cc3Cl)C2)cc1` (centres undefined) stands 887 s; under `CS(=O)(=O)N1CCCc2cc(C(=O)NCc3cccnc3)ccc21`, 574 s; under `Cc1nc(C(=O)Nc2ccc(C)c(F)c2)c(C)o1`, 946 s.
On to `CC(=O)OCC(=O)[C@@]1(O)CCC2C3CCC4=CC(=O)CC[C@]4(C)C3=CC[C@@]21C` (some centres undefined), for which the RP-LC retention time came to 776 s.
Under `COc1cc(OC)cc(-c2nnc(Cc3nc(-c4ccccc4C)no3)o2)c1` stands 1060 s.
With `COc1ccc(-c2nc(N3CCCC3)c3ccccc3n2)cc1`, the RP-LC retention time came to 742 s.
The result for `Cc1ccc(Nc2c(-c3cc(Br)ccc3F)nc3cc(C)ccn23)cc1` reads 818 s; that for `COc1ccc(-c2cn3cccnc3n2)cc1NC(=O)c1ccc(Br)cc1`, 738 s; that for `O=c1n(CCOc2ccccc2)nc2ccc(S(=O)(=O)N3CCOCC3)cn12`, 792 s.
Under `O=C(CN1C(=O)CCSc2ccccc21)Nc1ccc2c(c1)OCO2` stands 627 s.
Under `CC1(C(=O)NCc2ccccc2)Cn2cnc(C(=O)N3CCOCC3)c2C(=O)N1C1CC1` (centres undefined) stands 605 s; under `Cc1sc2cc(C(=O)NC(C)(C)C)[nH]c2c1CN1CCCCC1`, 681 s.
As to `O=C(Cc1csc2nc(-c3ccccc3)cn12)Nc1ccccc1`, the RP-LC retention time was 785 s.
The result for `Cc1cc(C(=O)Nc2ccc(S(C)(=O)=O)cc2)on1` reads 625 s; that for `O=C(NCc1cccnc1)C1c2ccccc2C(=O)N(Cc2ccccc2)C12CCCC2` (centres undefined), 649 s.
With `CC(C)c1c(C2CCN(C(=O)c3ccoc3)CC2)noc1N`, the RP-LC retention time was 674 s.
On to `O=C(NC1CCN(Cc2ccccc2)CC1)C1CC(=O)N(CCc2ccccc2)C1` (centres undefined), for which the RP-LC retention time stood at 600 s.
As for `Cc1ccc(C2(O)C(=O)N(CC(=O)Nc3ccccc3F)c3ccccc32)cc1` (centres undefined), the RP-LC retention time is 664 s.
The result for `CCCCOc1ccc(C(=O)Nc2cc(OC)ccc2OC)cc1` reads 1110 s; that for `CCOC(=O)c1noc2ncnc(N3CCN(Cc4ccccc4)CC3)c12`, 643 s; that for `COc1ccc(-c2noc(C3CCCN3C(=O)Nc3ccccc3Cl)n2)cc1` (centres undefined), 920 s.
`O=C(Nc1cccc(OCc2nnc(-c3ccccc3)o2)c1)c1ccccn1` had an RP-LC retention time of 954 s.
The result for `Cc1nnc(N2CCC(C(=O)N3CCCC3)CC2)c2nn(-c3ccccc3)c(C)c12` reads 658 s.
In the case of `Cc1ccc2oc(-c3noc(C(=O)NCCN(C)C)n3)c(C)c2c1`, the RP-LC retention time was determined as 682 s.
The result for `Cc1ccc(-n2nc(CO)c(C(=O)NC3CC3)n2)cc1C` reads 890 s; that for `COc1ccc(NC(=O)C(=O)c2cccn2C)c(OC)c1`, 976 s; that for `Cc1ccc(-c2nccn3cc(C(=O)N4CCOCC4)nc23)cc1`, 748 s.
The result for `Cc1cc(C)c2[nH]c3c(c(=O)c2c1)CN(CC(=O)Nc1ccc2c(c1)OCO2)CC3` reads 626 s; that for `O=C(O)CSc1c(-c2ccccc2)c2cc(Cl)ccc2[nH]c1=O`, 806 s; that for `COc1ccc(CCn2c(-c3cccs3)nc3c(c(=O)c4ccccc4n3C)c2=O)cc1`, 880 s.
The molecule `CCc1cccc(C)c1Nc1c(-c2ccc(N3CCOCC3)cc2)nc2ncccn12` gave an RP-LC retention time of 806 s.
With `CC(C)N1C(=O)c2cccnc2Sc2cc(NC(=O)c3ccsc3)ccc21`, the RP-LC retention time came to 832 s.
Consider `O=C(Nc1cc(F)ccc1F)c1cc2sccc2n1Cc1ccc(F)cc1`, for which the RP-LC retention time was 1200 s.
Under `Cc1cccc(NC(=O)N2CCCC2c2nc(-c3cccc(C)c3)no2)c1` (centres undefined) stands 598 s.
The molecule `COc1ccc(CN2CCc3nc(N4CCN(c5ccccc5F)CC4)ncc3C2)cc1` gave an RP-LC retention time of 773 s.
Under `O=C(NCCc1cccs1)C1CCCN(C(=O)c2cc(-c3ccccn3)n[nH]2)C1` (centres undefined) stands 645 s.
Under `CN1C(=O)c2cc(C(=O)NCCCc3ccccc3)nn2CC1(C)C(=O)NC1CCCC1` (centres undefined) stands 826 s.
Under `CCc1cccc(NC(=O)N2CCc3nc[nH]c3C2)c1` stands 606 s.
Turning to `CC(C)CN1CCN(C(=O)C2CCCN(c3cnc4nccnc4c3)C2)CC1` (centres undefined), the RP-LC retention time was determined as 564 s.
The result for `COc1cc(NC(=O)c2ccccn2)ccc1Cl` reads 994 s.
Under `Cc1cc(NC(=O)CSc2ccc(NC(=O)c3cccc(F)c3)nn2)no1` stands 750 s; under `O=C(NCc1ccco1)c1nn(-c2ccc(F)cc2)c2ccccc2c1=O`, 872 s.
The result for `CCN(CC)CCNC(=O)c1cc(S(C)(=O)=O)ccc1OC` reads 617 s; that for `O=C(C1CCC1)N1CCc2sc(S(=O)(=O)Nc3ccc(F)c(Cl)c3)cc2C1`, 948 s; that for `COc1ccc(N2CCN(C(=O)c3ccc(S(=O)(=O)N4CCCC4)cc3)CC2)nn1`, 579 s.
For `CC1(C(=O)NCc2ccc(F)cc2)CN(S(C)(=O)=O)CC(=O)N1Cc1ccc(F)cc1` (centres undefined), the RP-LC retention time was 841 s.
On to `Cc1ccccc1CNC(=O)c1cn(C)nc1S(=O)(=O)N1CCSCC1`, for which the RP-LC retention time is 887 s.
Under `CCOc1ccc(NC(=O)CN2CCN(Cc3ccc(C)cc3)C(=O)C2=O)cc1` stands 799 s; under `COc1ccc(CN(Cc2ccccc2)Cc2cc(=O)n3cc(Cl)ccc3n2)cc1`, 721 s.
In turn, `CCOC(=O)c1[nH]c(C)c(CCC(=O)NC(C)C(=O)N2CCCCC2)c1C` (centres undefined) registered an RP-LC retention time of 570 s.
Take `Cc1nc(-c2ccccc2OC2CN(S(=O)(=O)Cc3ccccc3)C2)no1`: the RP-LC retention time worked out at 916 s.
With `Cc1cc(C)cc(NC(=O)N2CCC3(CC2)NC(=O)c2ccccc2O3)c1`, the RP-LC retention time turned out to be 842 s.
`CCOC(=O)c1oc2ccc(S(=O)(=O)N3CCCCCCNC(=O)[C@@H]4CCC[C@@H]43)cc2c1C` displayed an RP-LC retention time of 1060 s.
The result for `CCN1C(=O)C(C)(C(=O)Nc2ccccc2F)Oc2cccnc21` (centres undefined) reads 855 s.
`O=C(Cc1ccccc1Cl)Nc1nnc(C2CC(=O)N(c3ccc(F)cc3)C2)o1` (centres undefined): the RP-LC retention time turned out to be 705 s.
In the case of `Cc1ccc(-c2noc(C3CCCN3C(=O)c3ccc4c(c3)OCO4)n2)cc1` (centres undefined), the RP-LC retention time came to 1000 s.
Regarding `CCCn1cnc2cc(-c3noc(C(NC(=O)c4ccco4)C(C)C)n3)ccc21` (centres undefined), the RP-LC retention time was determined as 708 s.
Under `COc1ccc(S(=O)(=O)Nc2cc(-c3cn4ccc(C)cc4n3)ccc2C)cc1C` stands 687 s; under `O=C(CN1CCN(Cc2ccc(F)cc2)C(=O)C1=O)N1CCN(c2ccc(F)cc2)CC1`, 744 s.
`CCOC(=O)c1ccc(NC(=O)c2csc(-c3cn(C)c4ncccc34)n2)cc1` yielded an RP-LC retention time of 826 s.
Under `CN(CC1CCOCC1)C(=O)Nc1cc(F)ccc1F` stands 696 s; under `CCCCN1CC(c2nc3ccccc3n2CC(=O)N2CCOCC2)CC1=O` (centres undefined), 598 s.
Under `O=C(NCCc1ccccc1)c1nnc(-c2ccc(S(=O)(=O)N3CCOCC3)cc2)o1` stands 845 s; under `O=C(Nc1cc(Cl)ccc1F)C1CCCN(c2nnc3ccccn23)C1` (centres undefined), 649 s; under `COC(=O)c1ncn2c1C(=O)N(Cc1ccccc1F)C(C)(C(=O)NC1CCCC1)C2` (centres undefined), 737 s.
Regarding `CCC(CC)C(=O)N1CCN(c2nc(CN3CCOCC3)cs2)CC1`, the RP-LC retention time is 597 s.
The result for `COc1cccc(-c2noc(CN3C(=O)C(C)Oc4ccccc43)n2)c1` (centres undefined) reads 1060 s.
